For one molecule, IC50 results are on record in patent publication EP0718294A1, “2-Amino-1,3-thiazepines and their use as inhibitors of the nitrogene oxide synthase” (HOECHST AKTIENGESELLSCHAFT, priority 1994, dated 1996).

The assay has as its target T1, NO-Synthase (iNOS) (Mus musculus, UniProt P29477).
T1 construct: Während der Stimulation über 4 Stunden wird die Neusynthese des NO-produzierenden Enzyms NO-Synthase (iNOS) induziert; endogenous in cells; host or cells: RAW 264.7 mouse macrophages stimulated with LPS and γ-interferon
Put plainly: NO measurement by oxyhaemoglobin on LPS/γ-interferon-stimulated macrophages (inhibition of NO release). Type of assay: cell-based, Maus. The settings on record: Mäusemakrophagen RAW 264.7, stimulated 4 h with 140 ng LPS/ml + 5 U γIFN/ml; 120 min incubation with test substance; Extinktionsdifferenz 576-592 nm vs. stimulation control. How it is done:
Die Hemmung der NO-Freisetzung durch die Verbindungen der allgemeinen Formel I kann auch durch NO-Messung mittels Oxyhämoglobin auf Makrophagen wie folgt bestimmt werden: Mäusemakrophagen (MM) des Stammes RAW 264.7 werden in Petrischalen (10 cm Durchmesser) angezüchtet. Als Nährmedium wird DMEM (Fa. Sigma Nr. D 5405), konditioniert mit 4 mM l-Glutamin, 3,5 g D-Glukose/l, 50 U/50 µg/ml Pen/Strep und 10 % FKS, eingesetzt unter 5 % CO2, 95 % Luftfeuchtigkeit, 37°C. Die subkonfluenten Zellen werden mit dem Zellschaber abgekratzt, in Medium aufgenommen, die Zellzahl bestimmt (Zählung in Trypanblaulösung 0,2 %) und in 24-Napfplatten (1 x 10^6 Zellen/ml, 1 ml/Napf) ausgesät.
Ca. 18 Stunden nach Aussaat werden die gut adherierten Mausmakrophagen mit LPS (Lipopolysaccharid von E. coli Serotyp 0111:B4, Fa. Sigma Nr. L 2630) und γ-Interferon (γIFN, Maus rekombinant, Firma Boehringer Mannheim Nr. 1276905) stimuliert. Dazu wird das Kulturmedium von den Zellen abgesaugt und 1 ml/Napf (24-Napfplatte) Inkubationsmedium (MEM ohne Phenolrot (Biochrom F0385)), konditioniert mit 4mM Glutamin, 3,5 g Glukose/l, 3,7 g NaHCO3/l, 110 mg Natriumpyruvat/l, 50 U/50 µg/ml Pen/Strep und 5 % FKS, aufgegeben. Pro ml Inkubationsmedium werden 1 µl LPS und 1 µl γIFN pipettiert.
Daraus ergeben sich folgende Konzentrationen der Stimulatoren: 140 ng LPS/ml + 5 U γIFN/ml [formula] […]

Counter-ions that a name gives are not always drawn.

As for `NC1=NCCCCS1` [Beispiel 1, 2-Amino-4,5,6,7-tetrahydro-1,3-thiazepin-Hydrochlorid], the IC50 was 1.3 µM.
